Source: ChEMBL document CHEMBL4229439, “Design, synthesis and antimycobacterial activity of 3,5-dinitrobenzamide derivatives containing fused ring moieties” (2018)
≈ marks a conversion by molar mass, not a printed value. Calls of active or inactive are those of the source. The calls are words filed in the database; no cut-off is given here.

Legend:
[1] = system: Mycobacterium tuberculosis; assay: Antimycobacterial activity against isoniazid/rifampicin-resistant Mycobacterium tuberculosis isolate 16833 after 7 days by Alamar blue assay; format: functional; conditions: isolate 16833, 168 h
[2] = system: Mycobacterium tuberculosis; assay: Antimycobacterial activity against isoniazid/rifampicin-resistant Mycobacterium tuberculosis isolate 16995 after 7 days by Alamar blue assay; format: functional; conditions: isolate 16995, 168 h
[3] = system: Mycobacterium tuberculosis; assay: Antimycobacterial activity against isoniazid/rifampicin-resistant Mycobacterium tuberculosis isolate 16833 up to 10 ug/ml after 7 days by Alamar blue assay; format: functional, organism-based
[4] = system: Mycobacterium tuberculosis; assay: Antimycobacterial activity against isoniazid/rifampicin-resistant Mycobacterium tuberculosis isolate 16995 up to 10 ug/ml after 7 days by Alamar blue assay; format: functional, organism-based

SMILES	MIC [1]	MIC [2]	Activity [3]	Activity [4]
O=C(NCc1ccc2c(c1)CN(Cc1ccc(F)cc1)C2)c1cc([N+](=O)[O-])cc([N+](=O)[O-])c1	0.073 µg/mL (≈ 0.162 µM)	0.115 µg/mL (≈ 0.255 µM)		
O=C(NCc1ccc2c(c1)CN(Cc1ccc(OC(F)(F)F)cc1)C2)c1cc([N+](=O)[O-])cc([N+](=O)[O-])c1	0.565 µg/mL (≈ 1.09 µM)	0.61 µg/mL (≈ 1.18 µM)		
O=C(NCc1ccc2c(c1)CCN(Cc1ccc(Cl)cc1)C2)c1cc([N+](=O)[O-])cc([N+](=O)[O-])c1	0.143 µg/mL (≈ 0.297 µM)	0.077 µg/mL (≈ 0.16 µM)		
O=C(NCc1ccc2c(c1)CCN(c1ccc(C(F)(F)F)cc1)C2)c1cc([N+](=O)[O-])cc([N+](=O)[O-])c1	0.152 µg/mL (≈ 0.304 µM)	0.302 µg/mL (≈ 0.603 µM)		
NNC(=O)c1ccncc1 [ISONIAZID]	> 40 µg/mL	> 40 µg/mL		
O=C(NCc1ccc2c(c1)CNC2)c1cc([N+](=O)[O-])cc([N+](=O)[O-])c1	> 10 µg/mL	> 10 µg/mL	inactive	inactive
O=C(NCc1ccc2c(c1)CCN(Cc1cccc(F)c1)C2)c1cc([N+](=O)[O-])cc([N+](=O)[O-])c1	0.074 µg/mL (≈ 0.159 µM)	0.076 µg/mL (≈ 0.164 µM)		
COc1ccc(CN2Cc3ccc(CNC(=O)c4cc([N+](=O)[O-])cc([N+](=O)[O-])c4)cc3C2)cc1	0.286 µg/mL (≈ 0.618 µM)	0.606 µg/mL (≈ 1.31 µM)		
O=C(NCc1ccc2c(c1)CN(c1ccc(F)cc1)C2)c1cc([N+](=O)[O-])cc([N+](=O)[O-])c1	0.066 µg/mL (≈ 0.151 µM)	0.147 µg/mL (≈ 0.337 µM)		
CO[C@H]1/C=C/O[C@@]2(C)Oc3c(C)c(O)c4c(O)c(c(/C=N/N5CCN(C)CC5)c(O)c4c3C2=O)NC(=O)/C(C)=C\C=C\[C@H](C)[C@H](O)[C@@H](C)[C@@H](O)[C@@H](C)[C@H](OC(C)=O)[C@@H]1C [RIFAMPIN]	> 40 µg/mL	> 40 µg/mL		
O=C(NCc1ccc2c(c1)CCN(c1ccc(F)cc1)C2)c1cc([N+](=O)[O-])cc([N+](=O)[O-])c1	0.074 µg/mL (≈ 0.164 µM)	0.078 µg/mL (≈ 0.173 µM)		
O=c1nc(N2CCN(CC3CCCCC3)CC2)sc2c([N+](=O)[O-])cc(C(F)(F)F)cc12 [MACOZINONE]	< 0.016 µg/mL	< 0.016 µg/mL		
O=C(NCc1ccc2c(c1)CN(Cc1ccc(C(F)(F)F)cc1)C2)c1cc([N+](=O)[O-])cc([N+](=O)[O-])c1	0.278 µg/mL (≈ 0.556 µM)	0.308 µg/mL (≈ 0.615 µM)		
